Test system: Culture A83850 (Amycolatopsis albus NRRL 18532)
Assay: Resistance of culture A83850 to antibiotics, sensitivity discs on seeded ISP No. 2 agar plates
Type: cell-based
Conditions: disc content printed per antibiotic
Experimental: Resistance to antibiotics was measured by padding antibiotic sensitivity discs onto the surface of seeded ISP No. 2 agar plates.

CO[C@H]1C[C@H](O[C@H]2[C@H](C)[C@@H](O[C@@H]3O[C@H](C)C[C@H](N(C)C)[C@H]3O)[C@@H](C)C[C@@]3(CO3)C(=O)[C@H](C)[C@@H](O)[C@@H](C)[C@@H](C)OC(=O)[C@@H]2C)O[C@@H](C)[C@@H]1O [oleandomycin]
Resistance or inhibition of culture A83850 by antibiotic disc: resistant

CC1(C)S[C@@H]2[C@H](NC(=O)Cc3ccccc3)C(=O)N2[C@H]1C(=O)O [penicillin]
Resistance or inhibition of culture A83850 by antibiotic disc: inhibited

CO[C@H]1/C=C/O[C@@]2(C)Oc3c(C)c(O)c4c(O)c(c(/C=N/N5CCN(C)CC5)c(O)c4c3C2=O)NC(=O)/C(C)=C\C=C\[C@H](C)[C@H](O)[C@@H](C)[C@@H](O)[C@@H](C)[C@H](OC(C)=O)[C@@H]1C [rifampin]
Resistance or inhibition of culture A83850 by antibiotic disc: resistant

[H]/N=C(/N)N[C@H]1[C@H](O)[C@@H](O)[C@H](O[C@@H]2O[C@@H](C)[C@](O)(C=O)[C@H]2O[C@@H]2O[C@@H](CO)[C@H](O)[C@@H](O)[C@@H]2NC)[C@@H](N/C(N)=N\[H])[C@@H]1O [streptomycin]
Resistance or inhibition of culture A83850 by antibiotic disc: inhibited

CN(C)[C@@H]1C(O)=C(C(N)=O)C(=O)[C@@]2(O)C(O)=C3C(=O)c4c(O)cccc4[C@@](C)(O)[C@H]3C[C@@H]12 [tetracycline]
Resistance or inhibition of culture A83850 by antibiotic disc: resistant

NC[C@H]1O[C@H](O[C@H]2[C@H](O)[C@@H](O[C@H]3O[C@H](CO)[C@@H](O)[C@H](N)[C@H]3O)[C@H](N)C[C@@H]2N)[C@H](N)C[C@@H]1O [tobramycin]
Resistance or inhibition of culture A83850 by antibiotic disc: inhibited

gentamicin
Resistance or inhibition of culture A83850 by antibiotic disc: inhibited

neomycin
Resistance or inhibition of culture A83850 by antibiotic disc: resistant
